Measurements: patent US20250129334A1, “LINEAGE SPECIFICATION DURING STEM CELL TRANSITION” (Amniotics AB, priority 2021, published 2025)

What was measured:
Type in all cases: cell-based, human
iPSC-CD34+ = experiment: NK cell cytotoxic degranulation (CD107) with or without K562 co-culture; conditions: absence of K562; DCA 10 mM, CP 2.5 μM, cholesterol 0.5x
Excerpt: NK cell anti-tumour activity can occur via cytotoxic degranulation. CD107 is a marker that is present in the cytotoxic vesicles of NK cells, and so is not expressed on the cell surface of inactivated NK cells. However, upon NK cell activation and degranulation, the CD107 target becomes detectable on the cell surface. Therefore, the level of CD107 detected on NK cells correlates with cytotoxic degranulation. In this assay, several exemplary metabolic regulators were used to assess cytotoxic degranulation in a co-culture assay with K562 cells (an exemplary cancer cell model). As a negative control, iPSC-CD34^+ untreated with a metabolic regulator were used, in which a basal level of 3.27% of degranulated NK cells (CD3^−CD56^+CD16^+CD107^+ cells) were observed (FIG. 16A, top panel).

HSC-like cells = experiment: HSC-like cell subculture with metabolic regulators, flow cytometry; conditions: day 3, UK5099 10 μM
Excerpt: The RB9-CB1 human iPSC line (Woods, N.-B. et al. Brief report: efficient generation of hematopoietic precursors and progenitors from human pluripotent stem cell lines. Stem Cells 29, 1158-1164 (2011)) was co-cultured with mouse embryonic fibroblasts (MEFs, Millipore), passaged every six days and processed to form embryoid bodies (EBs) as described previously (Guibentif, C. et al. Single-Cell Analysis Identifies Distinct Stages of Human Endothelial to-Hematopoietic Transition. Cell Reports 19, 10-19 (2017)). The differentiation protocol used in this study was previously described (Ditadi, A. & Sturgeon, C. M. Directed differentiation of definitive hemogenic endothelium and hematopoietic progenitors from human pluripotent stem cells. Methods 101, 65-72 (2016)), however, small modifications were made to induce both primitive and definitive hematopoiesis, as indicated below and in FIG. 6, a. Newly-formed EBs were first kept in SFD medium supplemented with 1 ng/ml Activin A (on days 0-2) and 3 μM CHIR99021 (on day 2 only). At day 3, media was switched to “Day 3-SP34” medium supplemented with 1 ng/ml Activin A (on day 3 only) and 3 μM CHIR99021 (on day 3 only) until day 6. On day 6, media was replaced by “Day 6-SP34” medium, until day 8. […]

EHT cells = experiment: EHT cell subculture with metabolic regulators, flow cytometry; conditions: UK5099 10 μM
Excerpt: The RB9-CB1 human iPSC line (Woods, N.-B. et al. Brief report: efficient generation of hematopoietic precursors and progenitors from human pluripotent stem cell lines. Stem Cells 29, 1158-1164 (2011)) was co-cultured with mouse embryonic fibroblasts (MEFs, Millipore), passaged every six days and processed to form embryoid bodies (EBs) as described previously (Guibentif, C. et al. Single-Cell Analysis Identifies Distinct Stages of Human Endothelial to-Hematopoietic Transition. Cell Reports 19, 10-19 (2017)). The differentiation protocol used in this study was previously described (Ditadi, A. & Sturgeon, C. M. Directed differentiation of definitive hemogenic endothelium and hematopoietic progenitors from human pluripotent stem cells. Methods 101, 65-72 (2016)), however, small modifications were made to induce both primitive and definitive hematopoiesis, as indicated below and in FIG. 6, a. Newly-formed EBs were first kept in SFD medium supplemented with 1 ng/ml Activin A (on days 0-2) and 3 μM CHIR99021 (on day 2 only). At day 3, media was switched to “Day 3-SP34” medium supplemented with 1 ng/ml Activin A (on day 3 only) and 3 μM CHIR99021 (on day 3 only) until day 6. On day 6, media was replaced by “Day 6-SP34” medium, until day 8. In some experiments where indicated, to obtain a higher yield of HSC-like cells, EBs were kept until day 10: in this case, EBs were plated onto Matrigel (8 μg/cm2, Corning)-coated dishes on day 8 and kept until day 10. Media was changed every day, except on days 5 and 7. On day 8 or 10 (as indicated), EBs were singularized with 5-6 rounds of 5-minute incubations with TryPLE Express (Thermo Fisher Scientific). […]

Structure (SMILES): O=C(O)C(Cl)Cl [DCA, dichloroacetate]
- degranulated NK cells (CD3-CD56+CD16+CD107+ cells) (iPSC-CD34+): 13.8 % of the population
- increase in degranulated NK cells vs untreated control (iPSC-CD34+): more than 4 fold

Structure (SMILES): N#CC(=Cc1cn(-c2ccccc2)c2ccccc12)C(=O)O [UK5099, 2-Cyano-3-(1-phenyl-1H-indol-3-yl)-2-propenoic acid]
- CD43+GPA+ cell output (HSC-like cells): absence of bias
- CD43+GPA+ cell output (EHT cells; day 3, EHT cells): absence of bias
- decrease in CD43+CD45+ population (EHT cells; day 6, deriving from EHT cells): 2 fold
